Our source for the IC50 values is ChEMBL document CHEMBL3853278, “Metabolomic Profiling Reveals the N-Acyl-Taurine Geodiataurine in Extracts from the Marine Sponge Geodia macandrewii (Bowerbank)” (J Nat Prod, 2016).

For orientation: IC50 means the concentration at which inhibition is half-maximal.

The assay in a line: Cytotoxicity in human A2058 cells assessed as reduction in cell viability after 72 hrs by cell titer 96 aqueous one assay. The assay is classed as functional, cell-based. The following applies: A2058, 72 h.

As to `CC(C)=CCC/C(C)=C/CC/C(C)=C/CCC(C)C(=O)NCCS(=O)(=O)O` (stereo unspecified), the IC50 amounted to 8.5 µM.
